Format in all cases: functional
One experiment has as its system NCI-H322M. Description: Growth inhibition of human NCI-H322M cells assessed as cell growth at 0.003 uM incubated for 48 hrs by sulforhodamine B assay relative to control. The settings on record: read-out: Activity. For orientation: In SRB staining, fixed cells bind dye roughly in proportion to their protein.
The next experiment relates to U-251. As to the kind of experiment: Growth inhibition of human U251 cells assessed as cell growth at 0.003 uM incubated for 48 hrs by sulforhodamine B assay relative to control. Particulars: U-251, 48 h, read-out: Activity.
In a further experiment the test system is K562. Description: Growth inhibition of human K562 cells assessed as cell growth at 0.03 uM incubated for 48 hrs by sulforhodamine B assay relative to control. The settings on record: K562, 48 h, read-out: Activity.
The next experiment deals with A549. As to the kind of experiment: Growth inhibition of human A549/ATCC cells assessed as cell growth at 0.03 uM incubated for 48 hrs by sulforhodamine B assay relative to control. Particulars: A549, 48 h, read-out: Activity.
For another experiment, the system named is SF-539. Description: Growth inhibition of human SF539 cells assessed as cell growth at 0.03 uM incubated for 48 hrs by sulforhodamine B assay relative to control. The settings on record: SF-539, 48 h, read-out: Activity.
The subject of a further experiment is M14. Description: Growth inhibition of human M14 cells assessed as cell growth at 0.03 uM incubated for 48 hrs by sulforhodamine B assay relative to control. Particulars: M14, 48 h, read-out: Activity.
In experiment [1] the test system is MDA-MB-231. As to the kind of experiment: Growth inhibition of human MDA-MB-231 cells assessed as cell growth at 0.03 uM incubated for 48 hrs by sulforhodamine B assay relative to control. Particulars: MDA-MB-231, 48 h, read-out: Activity.
Another experiment deals with SW-620. As to the kind of experiment: Growth inhibition of human SW620 cells assessed as cell growth at 0.3 uM incubated for 48 hrs by sulforhodamine B assay relative to control. Particulars: SW-620, 48 h, read-out: Activity.
The test system of the next experiment is OVCAR-4. Description: Growth inhibition of human OVCAR4 cells assessed as cell growth at 0.3 uM incubated for 48 hrs by sulforhodamine B assay relative to control. Particulars: OVCAR-4, 48 h, read-out: Activity.
The test system of experiment [2] is T47D. As to the kind of experiment: Growth inhibition of human T47D cells assessed as cell growth at 0.3 uM incubated for 48 hrs by sulforhodamine B assay relative to control. Particulars: read-out: Activity.
In experiment [3] the test system is SK-MEL-28. As to the kind of experiment: Growth inhibition of human SK-MEL-28 cells assessed as cell growth at 30 uM incubated for 48 hrs by sulforhodamine B assay relative to control. The settings on record: SK-MEL-28, 48 h, read-out: Activity.
A further experiment has as its system HL-60(TB). As to the kind of experiment: Growth inhibition of human HL-60(TB) cells assessed as cell growth at 0.01 uM incubated for 48 hrs by sulforhodamine B assay relative to control. Particulars: HL-60, 48 h, read-out: Activity.
For experiment [4], the system named is SNB-19. Description: Growth inhibition of human SNB19 cells assessed as cell growth at 0.01 uM incubated for 48 hrs by sulforhodamine B assay relative to control. Particulars: SNB-19, 48 h, read-out: Activity.
In the next experiment the test system is Malme-3M. As to the kind of experiment: Growth inhibition of human MALME-3M cells assessed as cell growth at 0.01 uM incubated for 48 hrs by sulforhodamine B assay relative to control. The settings on record: read-out: Activity.
The test system of another experiment is IGROV-1. As to the kind of experiment: Growth inhibition of human IGROV1 cells assessed as cell growth at 0.01 uM incubated for 48 hrs by sulforhodamine B assay relative to control. The settings on record: IGROV-1, 48 h, read-out: Activity.
For a further experiment, the system named is Hs-578T. Description: Growth inhibition of human Hs 578T cells assessed as cell growth at 0.01 uM incubated for 48 hrs by sulforhodamine B assay relative to control. The settings on record: read-out: Activity.
A further experiment concerns RPMI-8226. Description: Growth inhibition of human RPMI8226 cells assessed as cell growth at 0.1 uM incubated for 48 hrs by sulforhodamine B assay relative to control. Particulars: RPMI-8226, 48 h, read-out: Activity.
A further experiment relates to LOX IMVI. As to the kind of experiment: Growth inhibition of human LOXIMVI cells assessed as cell growth at 0.1 uM incubated for 48 hrs by sulforhodamine B assay relative to control. The settings on record: read-out: Activity.
Experiment [5] relates to A498. As to the kind of experiment: Growth inhibition of human A498 cells assessed as cell growth at 0.1 uM incubated for 48 hrs by sulforhodamine B assay relative to control. Particulars: A498, 48 h, read-out: Activity.
The next experiment deals with MOLT-4. Description: Growth inhibition of human MOLT4 cells assessed as cell growth at 1 uM incubated for 48 hrs by sulforhodamine B assay relative to control. The settings on record: MOLT-4, 48 h, read-out: Activity.
The test system of experiment [6] is SNB-19. As to the kind of experiment: Growth inhibition of human SNB19 cells assessed as cell growth at 1 uM incubated for 48 hrs by sulforhodamine B assay relative to control. The settings on record: SNB-19, 48 h, read-out: Activity.
Another experiment relates to SK-MEL-5. Description: Growth inhibition of human SK-MEL-5 cells assessed as cell growth at 1 uM incubated for 48 hrs by sulforhodamine B assay relative to control. Particulars: SK-MEL-5, 48 h, read-out: Activity.
The test system of experiment [7] is A498. As to the kind of experiment: Growth inhibition of human A498 cells assessed as cell growth at 1 uM incubated for 48 hrs by sulforhodamine B assay relative to control. The settings on record: A498, 48 h, read-out: Activity.
For another experiment, the system named is PC-3. Description: Growth inhibition of human PC3 cells assessed as cell growth at 1 uM incubated for 48 hrs by sulforhodamine B assay relative to control. The settings on record: PC-3, 48 h, read-out: Activity.
Another experiment has as its system MCF7. Description: Growth inhibition of human MCF7 cells assessed as cell growth at 1 uM incubated for 48 hrs by sulforhodamine B assay relative to control. Particulars: MCF7, 48 h, read-out: Activity.
Another experiment deals with BT-549. As to the kind of experiment: Growth inhibition of human BT549 cells assessed as cell growth at 1 uM incubated for 48 hrs by sulforhodamine B assay relative to control. Particulars: BT-549, 48 h, read-out: Activity.
The subject of experiment [8] is T47D. Description: Growth inhibition of human T47D cells assessed as cell growth at 1 uM incubated for 48 hrs by sulforhodamine B assay relative to control. Particulars: read-out: Activity.
The next experiment deals with HT-29. As to the kind of experiment: Growth inhibition of human HT-29 cells assessed as cell growth at 10 uM incubated for 48 hrs by sulforhodamine B assay relative to control. Particulars: HT-29, 48 h, read-out: Activity.
Experiment [9] has as its system SK-MEL-28. Description: Growth inhibition of human SK-MEL-28 cells assessed as cell growth at 10 uM incubated for 48 hrs by sulforhodamine B assay relative to control. Particulars: SK-MEL-28, 48 h, read-out: Activity.
A further experiment has as its system ACHN. As to the kind of experiment: Growth inhibition of human ACHN cells assessed as cell growth at 10 uM incubated for 48 hrs by sulforhodamine B assay relative to control. The settings on record: read-out: Activity.
Another experiment relates to HCT-116. As to the kind of experiment: Growth inhibition of human HCT116 cells assessed as cell growth at 100 uM incubated for 48 hrs by sulforhodamine B assay relative to control. The settings on record: HCT-116, 48 h, read-out: Activity.
In a further experiment the test system is OVCAR-5. As to the kind of experiment: Growth inhibition of human OVCAR5 cells assessed as cell growth at 100 uM incubated for 48 hrs by sulforhodamine B assay relative to control. The settings on record: OVCAR-5, 48 h, read-out: Activity.
A further experiment relates to SN12C. Description: Growth inhibition of human SN12C cells assessed as cell growth at 100 uM incubated for 48 hrs by sulforhodamine B assay relative to control. Particulars: read-out: Activity.
In experiment [10] the test system is MDA-MB-231. Description: Growth inhibition of human MDA-MB-231 cells assessed as cell growth at 100 uM incubated for 48 hrs by sulforhodamine B assay relative to control. Particulars: MDA-MB-231, 48 h, read-out: Activity.

For 4 molecules, growth results are on record in ChEMBL document CHEMBL3994622, “Design and synthesis of new RAF kinase-inhibiting antiproliferative quinoline derivatives. Part 2: Diarylurea derivatives” (Eur J Med Chem, 2017).

With `Cc1nc2cc(O)c(O)cc2cc1Oc1ccc(NC(=O)Nc2ccc(Cl)c(Cl)c2)cc1`, the growth at 0.003 µM with NCI-H322M amounted to 103%; with U-251, 95%. Moreover, the growth at 0.03 µM with K562 was 110%; with A549 it was 98%; with SF-539, 105%; in the experiment on M14 it was 89%; in the experiment on MDA-MB-231 [1], 115%. The growth at 0.3 µM with SW-620 worked out at 100%; in the experiment with OVCAR-4, 94%; in the experiment on T47D [2], 101%. The growth at 30 µM with SK-MEL-28 [3] was -3%.

For the molecule `COc1cc2cc(Oc3ccc(NC(=O)Nc4ccc(Cl)c(C(F)(F)F)c4)cc3)c(C)nc2cc1OC`, the growth at 0.003 µM in the experiment with NCI-H322M is 91%; in the experiment on U-251 it was 97%. Besides, the growth at 0.03 µM worked out at 102% in the experiment on K562; 100% with A549; 100% with SF-539; 82% in the experiment with M14; 92% in the experiment with MDA-MB-231 [1]. Moreover, the values for the growth at 0.3 µM in the experiment with SW-620, in the experiment on OVCAR-4 and in the experiment with T47D [2] were 99%, 94% and 92%, respectively. Further, the growth at 30 µM in the experiment with SK-MEL-28 [3] was -92%.

In the case of `COc1cc2cc(Oc3ccc(NC(=O)Nc4ccc(Cl)c(Cl)c4)cc3)c(C)nc2cc1OC`, the growth at 0.01 µM in the experiment on HL-60(TB) worked out at 104%; in the experiment on SNB-19 [4] it was 94%; in the experiment with Malme-3M it was 102%; in the experiment on IGROV-1, 110%; with Hs-578T, 100%. Also, the growth at 0.1 µM came out at 101% with RPMI-8226, 96% with LOX IMVI and 86% with A498 [5]. The growth at 1 µM in the experiment on MOLT-4 worked out at 90%; with SNB-19 [6], 92%; with SK-MEL-5, 91%; in the experiment with A498 [7], 74%; in the experiment on PC-3 it was 67%; in the experiment on MCF7 it was 86%. For the same molecule, the growth at 1 µM in the experiment with BT-549 came out at 78%; with T47D [8] it was 88%. The growth at 10 µM was -49% with HT-29, 16% with SK-MEL-28 [9] and 5% in the experiment on ACHN. Further, the growth at 100 µM with HCT-116 is -100%; in the experiment with OVCAR-5 it was -44%; with SN12C, -41%; with MDA-MB-231 [10] it was -100%.

As for `COc1cc2cc(Oc3ccc(NC(=O)Nc4cc(C(F)(F)F)cc(C(F)(F)F)c4)cc3)c(C)nc2cc1OC`, the growth at 0.01 µM with HL-60(TB) stood at 89%; in the experiment on SNB-19 [4], 95%; with Malme-3M, 87%; with IGROV-1 it was 96%; in the experiment with Hs-578T, 98%. In addition, the growth at 0.1 µM in the experiment with RPMI-8226 came to 93%; in the experiment with LOX IMVI it was 95%; in the experiment with A498 [5] it was 93%. The growth at 1 µM in the experiment on MOLT-4 is 55%; in the experiment on SNB-19 [6] it was 39%; in the experiment with SK-MEL-5 it was 84%; with A498 [7], 74%; in the experiment with PC-3, 27%; in the experiment on MCF7, 35%. Also, the growth at 1 µM in the experiment on BT-549 is 86%; with T47D [8], 64%. Further, the values for the growth at 10 µM in the experiment with HT-29, in the experiment with SK-MEL-28 [9] and in the experiment with ACHN were -64%, -61% and -57%, respectively. The growth at 100 µM with HCT-116 was -87%; with OVCAR-5, -78%; with SN12C, -74%; in the experiment on MDA-MB-231 [10] it was -83%.
